Measured values taken from ChEMBL document CHEMBL4622885, “Rational design, synthesis and biological evaluation of novel multitargeting anti-AD iron chelators with potent MAO-B inhibitory and antioxidant activity” (Bioorg Med Chem, 2020).

Tests used:
[1] = tested on: Mus musculus; test: Antialzheimer activity in scopolamine-induced impairment in ICR mouse assessed as total distance to platform at 15 mg/kg, ip administered once a day for 10 days pretreated with scopolamine for 30 mins and measured at 5th day of training session by Morris water maze test (reference value: 6.56 +/- 1.27 m); format: functional
[2] = tested on: Mus musculus; test: Antialzheimer activity in scopolamine-induced impairment in ICR mouse assessed as total entries at 15 mg/kg, ip administered once a day for 10 days pretreated with scopolamine for 30 mins and measured at 5th day of training session by Morris water maze test (reference value: 2.19 +/- 0.16); format: functional
[3] = tested on: Mus musculus; test: Antialzheimer activity in scopolamine-induced impairment in ICR mouse assessed as latency time at 15 mg/kg, ip administered once a day for 10 days pretreated with scopolamine for 30 mins and measured at 5th day of training session by Morris water maze test (reference value: 29.4 +/- 5.77 sec); format: functional
[4] = tested on: PC-12; test: Neuroprotective activity in amyloid beta (1 to 42 residues) (unknown origin)-induced ROS production in rat PC12 cells assessed as intracellular ROS level at 10 uM pretreated for 36 hrs followed by incubation with DCFH-DA for 10 mins by flow cytometry analysis (reference value: 30.7%); format: functional
[5] = tested on: PC-12; test: Neuroprotective activity against amyloid beta (1 to 42 residues) induced cytotoxicity in rat PC12 cells assessed as cell viability at 10 uM incubated for 24 hrs by MTT assay (reference value: 100%); format: functional; conditions: PC-12, 24 h, read-out: Activity
[6] = molecular target: T1, Amine oxidase [flavin-containing] B (Homo sapiens, UniProt P27338); test: Inhibition of human recombinant MAO-B expressed in baculovirus infected BTI insect cells using kynuramine as substrate at 100 nM incubated for 10 mins followed by substrate addition by fluorimetric analysis relative to control
T1 sequence (P27338 whole entry): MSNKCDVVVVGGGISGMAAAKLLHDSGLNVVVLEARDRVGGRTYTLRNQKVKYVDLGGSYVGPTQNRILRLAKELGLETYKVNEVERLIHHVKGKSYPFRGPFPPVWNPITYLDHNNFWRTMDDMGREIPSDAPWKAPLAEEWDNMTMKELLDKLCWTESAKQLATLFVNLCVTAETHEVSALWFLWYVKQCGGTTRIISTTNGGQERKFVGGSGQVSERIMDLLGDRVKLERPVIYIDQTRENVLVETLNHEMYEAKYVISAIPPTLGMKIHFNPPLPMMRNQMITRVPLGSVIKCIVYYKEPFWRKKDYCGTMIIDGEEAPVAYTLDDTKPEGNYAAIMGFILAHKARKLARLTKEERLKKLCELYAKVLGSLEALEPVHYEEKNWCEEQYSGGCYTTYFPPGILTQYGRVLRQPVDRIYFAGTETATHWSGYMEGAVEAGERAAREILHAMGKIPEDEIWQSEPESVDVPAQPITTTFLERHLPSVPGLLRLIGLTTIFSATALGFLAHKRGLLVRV

[7] = Dissociation constant, pKa1 of compound for protonation of the 4-oxo group in 0.1 M KCl incubated for 1 min by UV-pH titration based spectrophotometric analysis; format: physicochemical
[8] = Metal chelating activity assessed as Fe3+ complex formation by measuring stability constant for Fe(I)3 in using pre Fe+3 complexed compound (FeCl3) in 0.1 M KCl :DMSO solution UV-pH titration based spectrophotometric analysis
[9] = Cytotoxicity against rat PC12 cells assessed as cell viability at 12.5 uM incubated for 24 hrs by MTT assay relative to control; format: cell-based, PC-12; conditions: read-out: Activity
[10] = Metal chelating activity assessed as iron chelation
[11] = Cytotoxicity against rat PC12 cells assessed as cell viability at 6.25 uM incubated for 24 hrs by MTT assay relative to control; format: cell-based, PC-12; conditions: read-out: Activity
[12] = Cytotoxicity against rat PC12 cells assessed as cell viability at 50 uM incubated for 24 hrs by MTT assay relative to control; format: cell-based, PC-12; conditions: read-out: Activity
[13] = Dissociation constant, pKa2 of compound for dissociation of the 3-hydroxyl group in 0.1 M KCl incubated for 1 min by UV-pH titration based spectrophotometric analysis; format: physicochemical
[14] = molecular target: T1, Amine oxidase [flavin-containing] B; test: Inhibition of human recombinant MAO-B expressed in baculovirus infected BTI insect cells using kynuramine as substrate incubated for 10 mins followed by substrate addition by fluorimetric analysis
[15] = Cytotoxicity against rat PC12 cells assessed as cell viability at 25 uM incubated for 24 hrs by MTT assay relative to control; format: cell-based, PC-12; conditions: read-out: Activity
[16] = Metal chelating activity assessed as Fe3+ complex formation by measuring stability constant for FeI in using pre Fe+3 complexed compound (FeCl3) in 0.1 M KCl :DMSO solution UV-pH titration based spectrophotometric analysis
[17] = Cytotoxicity against rat PC12 cells assessed as cell viability at 3.13 uM incubated for 24 hrs by MTT assay relative to control; format: cell-based, PC-12; conditions: read-out: Activity
[18] = Metal chelating activity assessed as Fe3+ complex formation by measuring stability constant for Fe(I)2 in using pre Fe+3 complexed compound (FeCl3) in 0.1 M KCl :DMSO solution UV-pH titration based spectrophotometric analysis

Row | Compound | Activity [1] [m] | Activity [2] | Time [3] [s] | Activity [4] [%] | viability at 10 µM [5] [%] | inhibition at 0.1 µM [6] [%] | pKa at 1 min [7] | log(activity) [8] | viability at 24 h, 12.5 µM [9] [%] | pFe3+ [10] | viability at 24 h, 6.25 µM [11] [%] | viability at 24 h, 50 µM [12] [%] | pKa at 1 min [13] | IC50 [14] [nM] | viability at 24 h, 25 µM [15] [%] | log(activity) [16] | viability at 24 h, 3.13 µM [17] [%] | log(activity) [18]
1 | CC12CC3CC(C)(C1)CC(N)(C3)C2 [MEMANTINE] | 3.52 | 5.19 | 13.42 | 30.51 | 55.2 |  |  |  |  |  |  |  |  |  |  |  |  | 
2 | C#CCN(C)Cc1ccccc1 [PARGYLINE] | 4.37 | 3.81 | 20.85 |  |  | 53 |  |  |  |  |  |  |  |  |  |  |  | 
3 | Nc1c2c(nc3ccccc13)CCCC2 [TACRINE] | 4.28 | 4.63 | 18.03 |  |  |  |  |  |  |  |  |  |  |  |  |  |  | 
4 | COc1ccc2cc(C(=O)NCCn3ccc(=O)c(O)c3C)c(=O)oc2c1 | 3.87 | 4.63 | 14.94 | 8.2 | 88.2 | 65.5 | 3.27 | 35.3 | 98 | 18.9 | 99.9 | 61.7 | 9.7 | 87.9 | 90.4 | 14.9 | 98.7 | 26.2
5 | Cc1cc(=O)c(O)cn1CCNC(=O)c1cc2ccccc2oc1=O |  |  |  |  |  | 44.8 | 3.3 | 31.8 |  | 17.3 |  |  | 9.05 | 129 |  | 12.9 |  | 23.3
6 | COc1cccc2cc(C(=O)NCCn3ccc(=O)c(O)c3C)c(=O)oc12 |  |  |  |  |  | 46 | 3.22 | 34.1 |  | 18.2 |  |  | 9.55 | 111 |  | 14.2 |  | 25.4
7 | Cc1c(O)c(=O)ccn1CCNC(=O)c1cc2ccc(OCc3ccc(C(F)(F)F)cc3)cc2oc1=O |  |  |  |  |  | 47.4 | 3.37 | 34.9 |  | 18.1 |  |  | 9.83 | 119 |  | 14 |  | 25.1
8 | Cc1c(O)c(=O)ccn1CCNC(=O)c1cc2ccc(OCc3ccc(C(C)(C)C)cc3)cc2oc1=O |  |  |  |  |  | 45.3 | 3.17 | 36.6 |  | 20.2 |  |  | 9.73 | 122 |  | 14.8 |  | 26.1
9 | Cc1cccc2cc(C(=O)NCCn3ccc(=O)c(O)c3C)c(=O)oc12 |  |  |  |  |  | 44 | 3.3 | 35.2 |  | 18.7 |  |  | 9.75 | 156 |  | 14.4 |  | 25.8
10 | Cc1c(O)c(=O)ccn1CCNC(=O)c1cc2cccc(O)c2oc1=O |  |  |  |  |  | 46.2 | 3.35 | 34.8 |  | 17.6 |  |  | 9.98 | 158 |  | 14.4 |  | 26
11 | Cc1c(O)c(=O)ccn1CCNC(=O)c1cc2cc(O)ccc2oc1=O |  |  |  |  |  | 46.4 | 3.33 | 34.1 |  | 17.2 |  |  | 10.1 | 188 |  | 15.1 |  | 26.5
12 | Cc1c(O)c(=O)ccn1CCNC(=O)c1cc2ccc(OCc3cccc(Cl)c3)cc2oc1=O |  |  |  |  |  | 47.4 | 3.26 | 34.5 |  | 18.6 |  |  | 9.56 | 136 |  | 14.4 |  | 24.9
